Where two headings read alike, the source gives them in different places. Marks after values point to notes of the source that are not given here.
Legend:
[1] = Non-specific binding in S9 fractions of mouse liver, kidney and pancreas homogenates, rapid equilibrium dialysis; assay type: in vitro ADME; conditions: for fraction unbound at 4 h, 50 μM: pH 7.4, 37 °C, mean ± SD (n = 3); for unbound (free) portion, range over liver, kidney and pancreas: range over the studied mouse tissues
Protocol: The unbound fractions of FA, D1, and D2 were determined in the S9 subcellular fractions of the mouse liver, kidneys, and pancreas using rapid equilibrium dialysis (RED) plates (Thermo Fisher Scientific, Inc., Waltham, MA, USA). Briefly, the studied compounds were spiked at a 50 μM concentration into 100 μL of mouse homogenate S9 subcellular fraction and transferred to the reaction chamber. Homogenate dilutions were 1:4 (w/v) for the liver and kidney, and 1:20 (w/v) for the pancreas. A total of 350 μL of TBS (pH 7.4) buffer was added to the buffer chamber of the RED plate. The dialysis plate was incubated at 37 °C with shaking for 4 h. Samples of 50 μL were collected from both the reaction and buffer chambers, and equal amounts of buffer and S9 fraction were added to the collected samples, respectively, to yield identical sample matrices. The proteins were precipitated by diluting samples with 100 μL of ice-cold acetonitrile. Samples were centrifuged at 12 000 × g for 10 min, and the supernatants were collected for HPLC analysis.
The unbound fraction (fu,tissue) of the FA and its derivatives was calculated using eq 1 [drawing 1] 1 where D is the dilution factor of studied tissue homogenate, and fu,homogenate is the distribution ratio of the studied compound measured in the reaction and buffer chambers within the equilibrium dialysis assay.[29]

[2] = In vivo pharmacokinetics in mouse pancreas, liver and kidney after i.p. bolus; conditions: 25 μmol/kg i.p.; for Cmax kidney / Cmax liver / Cmax pancreas / AUCtotal kidney / AUCtotal liver / AUCtotal pancreas / Kp / half-life / Kp,uu (unbound tissue-to-plasma AUC ratio) / Tmax / AUCu, kidney / AUCu, liver / AUCu, pancreas / Cmax, u kidney / Cmax, u liver / Cmax, u pancreas: mice; for AUCtotal kidney / AUCtotal liver / AUCtotal pancreas: n = 3; for pancreas AUC, times higher in comparison to the original FA: mouse pancreas; for Kp / half-life / Kp,uu (unbound tissue-to-plasma AUC ratio) / Tmax: mouse, ip, 25 umol/kg; for Kp: tissue/plasma partition coefficient (eq 2); for half-life: elimination half-life; for AUCu, kidney / AUCu, liver / AUCu, pancreas: unbound (eq 3); for Cmax, u kidney / Cmax, u liver / Cmax, u pancreas: unbound
Protocol: The pharmacokinetic study of FA, D1, and D2 was performed as previously described,[17] in which the pharmacokinetic parameters for the plasma and brain have been reported. Briefly, the studied compounds were dissolved in a vehicle containing 0.9% (w/v) NaCl in water, and a dose of 25 μmol/kg of the FA, D1, or D2 (n = 3 per compound at each time point) was administered as a bolus intraperitoneal (i.p.) injection for mice. The mice were anesthetized using a mixture of ketamine (140 mg/kg) and xylazine (8 mg/kg) and sacrificed by decapitation at selected time points between 10 and 360 min. The kidney, liver, and pancreas were rapidly collected, snap-frozen on dry ice, and stored at −80 °C until analyzed.
The frozen tissues were weighed and homogenized with ultrapure water (1:3 w/v) by sonicating twice for 5 s with the SoniPrep 150 Plus disintegrator (MSE Ltd., London, UK). The proteins were precipitated by diluting homogenate 1:3 (v/v) with acetonitrile containing the internal standards—chlorzoxazone for FA and diclofenac for derivatives. Samples were then centrifuged at 14 000 × g for 10 min at 4 °C. Supernatants were collected and diluted further 1:1 with ultrapure water and transferred into HPLC vials for the analysis by liquid chromatography-tandem mass spectrometry (LC–MS/MS).
Drug concentrations were analyzed using the LC–MS/MS method described previously,[17] with minor changes. Briefly, the analysis was carried out with an Agilent 1200 Series Rapid Resolution LC System with an Agilent Zorbax XBD-C18 rapid resolution high-throughput (RRHT) column (50 mm × 4.6 mm, 1.8 μm) and an Agilent 6410 triple quadrupole mass spectrometer equipped with an electrospray ionization source (Agilent Technologies, Palo Alto, CA, USA). The LC eluents were water (eluent A) and acetonitrile (eluent B), both containing 0.1% (v/v) formic acid. FA was separated with the following gradient: 0–1 min: 5% B, 1–2 min: 5% B → 90%, 2–4 min: 90% B, 4–4.1 min: 90% B → 5%, and 4.1–7 min: 5% B. For the derivatives, the gradient was as follows: 0–1 min: 10% B, 1–2 min: 10% B → 90%, 2–5 min: 90% B, 5–5.1 min: 90% B → 10%, and 5.1–8 min: 10% B. In both methods, the LC flow rate was 0.3 mL/min, the column temperature was set to 40 °C, and the sample injection volume was 5 μL.
The LC–MS/MS data acquisition for the FA was performed in a negative ion mode with the following conditions: drying gas flow 6.5 l/min with the temperature of 300 °C, nebulizer gas pressure of 20 psi, and capillary voltage of 4 000 V. MRM transitions were 193 → 149 for FA and 168 → 132 for chlorzoxazone. Fragmentor voltages were 100 and 120 V, respectively, and the collision energy was 20 V for both. For D1 and D2, the analysis was performed in a positive ion mode with the following conditions: drying gas flow of 6.5 l/min with the temperature of 300 °C, nebulizer gas pressure of 20 psi, and capillary voltage of 3 000 V. MRM transitions were 371 → 176.8 for D1, 357 → 310.9 for D2, and 296 → 250 for the diclofenac. The fragmentor voltages were 60, 40, and 100 V, and the collision energies were 16, 8, and 10 V, respectively. The data acquisition software was Agilent MassHunter Workstation software (version B.03.01), whereas Quantitative Analysis (B.09.00) software was used for data processing and analysis. The lower limit of quantification for the FA was 0.05 nmol/g and was 0.01 nmol/g for derivatives. The methods were linear, selective, accurate, and precise in the calibration range of 0.05–300 nmol/g for FA and 0.01–300 nmol/g for derivatives.
The time–concentration profiles for studied drugs were calculated using GraphPad Prism v. 5.03 software (GraphPad Software, San Diego, CA, USA). The area under curve (AUC) was calculated using the linear trapezoidal method, providing simultaneously the numeric pharmacokinetic parameters, such as tmax and Cmax. The half-life of elimination (t1/2β) was calculated from a logarithmic slope based on at least the last three detected timepoints. […]

[3] = mouse plasma, equilibrium dialysis, 4 h incubation, n = 2; cited from earlier work
[4] = S9 subcellular fraction of kidney homogenate, mouse kidney S9, 50 μM, read-out: fu, kidney (%)
[5] = S9 subcellular fraction of liver homogenate, mouse liver S9, 50 μM, read-out: fu, liver (%)
[6] = S9 subcellular fraction of pancreas homogenate, mouse pancreas S9, 50 μM, read-out: fu, pancreas (%)
[7] = kidney, read-out: t1/2β, kidney
[8] = kidney, read-out: AUCu, kidney/AUCu plasma
[9] = kidney, read-out: tmax kidney (converted)
[10] = liver, read-out: AUCu, liver/AUCu plasma
[11] = liver, read-out: tmax liver (converted)
[12] = pancreas, read-out: Kp, pancreas
[13] = pancreas, read-out: t1/2β, pancreas
[14] = pancreas, read-out: AUCu, pancreas/AUCu plasma
[15] = pancreas, read-out: tmax pancreas (converted)

fraction unbound at 4 h, 50 μM [1, 4] | fraction unbound at 4 h, 50 μM [1, 5] | fraction unbound at 4 h, 50 μM [1, 6] | unbound (free) portion, range over liver, kidney and pancreas [1] | Cmax kidney [2] | Cmax liver [2] | Cmax pancreas [2] | AUCtotal kidney [2] | AUCtotal liver [2] | AUCtotal pancreas [2] | Kp ([2]; kidney, read-out: Kp, kidney) | half-life [2, 7] | Kp,uu (unbound tissue-to-plasma AUC ratio) [2, 8] | Tmax [2, 9] | Kp ([2]; liver, read-out: Kp, liver) | half-life ([2]; liver, read-out: t1/2β, liver) | Kp,uu (unbound tissue-to-plasma AUC ratio) [2, 10] | Tmax [2, 11] | Kp [2, 12] | Kp,uu (unbound tissue-to-plasma AUC ratio) [2, 14] | SMILES | other results
0.469 ± 0.0593 | 0.425 ± 0.0544 | 0.28 ± 0.0147 | 28.02–46.85% | 20.4 nmol/g | 44.3 nmol/g | 168 nmol/g | 415 nmol·min/g | 1 769 nmol/g × min | 5 182 nmol/g × min | 0.4 | 11.8 min | 0.74 | 10 min | 1.7 | 11.7 min | 2.9 | 10 min | 4.97 | 5.54 | COc1cc(C=CC(=O)NCc2cccc(CC(N)C(=O)O)c2)ccc1O (stereo not shown) [derivative 1] | pancreas AUC, times higher in comparison to the original FA [2]: 129.2 times; half-life [2, 13]: 9.9 min; Tmax [2, 15]: 10 min; AUCu, kidney [2]: 194 nmol·min/g; AUCu, liver [2]: 752 nmol·min/g; AUCu, pancreas [2]: 1 452 nmol/g × min; Cmax, u kidney [2]: 9.6 nmol/g; Cmax, u liver [2]: 18.8 nmol/g; Cmax, u pancreas [2]: 47.1 nmol/g; fu, plasma (%) [3]: 19.66–30.62 ^b %
0.305 ± 0.0063 | 0.236 ± 0.0109 | 0.15 ± 0.0206 | 15.01–30.52% | 196 nmol/g | 66.4 nmol/g | 253 nmol/g | 3 368 nmol/g × min | 2 100 nmol/g × min | 8 172 nmol/g × min | 7.27 | 8 min | 25.7 | 10 min | 4.54 | 13.1 min | 12.4 | 10 min | 17.6 | 30.6 | COc1cc(/C=C/C(=O)Nc2cccc(C[C@H](N)C(=O)O)c2)ccc1O [derivative 2] | pancreas AUC, times higher in comparison to the original FA [2]: 203.8 times; half-life [2, 13]: 33.8 min; Tmax [2, 15]: 30 min; AUCu, kidney [2]: 1 028 nmol/g × min; AUCu, liver [2]: 496 nmol·min/g; AUCu, pancreas [2]: 1 226 nmol/g × min; Cmax, u kidney [2]: 59.8 nmol/g; Cmax, u liver [2]: 15.7 nmol/g; Cmax, u pancreas [2]: 38.0 nmol/g; fu, plasma (%) [3]: 8.37–9.01 ^b %

SMILES | fraction unbound at 4 h, 50 μM [1, 4] | fraction unbound at 4 h, 50 μM [1, 5] | fraction unbound at 4 h, 50 μM [1, 6] | unbound (free) portion, range over liver, kidney and pancreas [1] | Cmax kidney [2] | Cmax liver [2] | Cmax pancreas [2] | AUCtotal kidney [2] | AUCtotal liver [2] | AUCtotal pancreas [2] | Kp ([2]; kidney, read-out: Kp, kidney) | half-life [2, 7] | Kp,uu (unbound tissue-to-plasma AUC ratio) [2, 8] | Tmax [2, 9] | Kp ([2]; liver, read-out: Kp, liver) | half-life ([2]; liver, read-out: t1/2β, liver) | Kp,uu (unbound tissue-to-plasma AUC ratio) [2, 10] | Tmax [2, 11] | Kp [2, 12] | Kp,uu (unbound tissue-to-plasma AUC ratio) [2, 14] | other results
COc1cc(C=CC(=O)O)ccc1O [ferulic acid, 4-hydroxy-3-methoxycinnamic acid] | 0.991 ± 0.105 | 0.849 ± 0.145 | 0.993 ± 0.0196 | 84.94–99.30% | 14.4 nmol/g | 18.0 nmol/g | 5.4 nmol/g | 140 nmol·min/g | 408 nmol·min/g | 40.1 nmol·min/g | 0.24 | 3.4 min | 2.21 | 10 min | 0.69 | 11.2 min | 5.5 | 10 min | 0.07 | 0.64 | Tmax [2, 15]: 10 min; AUCu, kidney [2]: 139 nmol·min/g; AUCu, liver [2]: 347 nmol·min/g; AUCu, pancreas [2]: 40.1 nmol·min/g; Cmax, u kidney [2]: 14.3 nmol/g; Cmax, u liver [2]: 15.3 nmol/g; Cmax, u pancreas [2]: 5.4 nmol/g; fu, plasma (%) [3]: 9.94–11.51 ^b %

Source: PMC9644403, “L-type Amino Acid Transporter 1 Utilizing Ferulic Acid Derivatives Show Increased Drug Delivery in the Mouse Pancreas Along with Decreased Lipid Peroxidation and Prostaglandin Production” (Molecular Pharmaceutics, 2022)
